Experimental data from patent US20040224892A1, “Oligosaccharides in cosmetic or dermatological compositions for stimulating adhesion of keratinocytes to major proteins of the dermoepidermal junction and restoration of epidermal cohesion” (Laboratoires de Biologie Vegetale Yves Rocher, a …, priority 2001, published 2004).

How the values were obtained:
[1] = system: normal human keratinocytes on laminin V; assay: Adhesion of normal human keratinocytes on laminin V (colorimetric crystal violet adherence test); format: cell-based; conditions: manganese chloride 0.5 mM, 45 minutes
Protocol: The culture medium employed was the defined medium for keratinocyte culture 154 (+additive HKGS) manufactured by Cascade Inc. (USA) and marketed by Tebu (France) containing 0.2 mM of CaCl2, pH 7.2 to 7.4. The keratinocytes were obtained according to the technique described by Boyce and Ham (Boyce S T, Ham R G, J. Invest. Dermatol., 1983, 81, 33s-40s). Pieces of human skin obtain from human prepuces (circumcision) were treated in a manner to isolate their basal human keratinocytes. 3·10^4 live cells were then seeded per cm^2 on 25-cm^2 tissue culture dishes (Coming, Polylabo, France). The keratinocytes were cultured at 37° C. in an incubator with CO2 (5% of CO2, 95% of air and 98% humidity). The medium was changed every two days. Subculture took place when the cells reached subconfluence. The cell layer was then rinsed with PBS, then the cells were trypsinated using the conventional trypsination technique (Trypsin-EDTA (0.05-0.02%) at 37° C.). The cells were then seeded in 75-cm^2 culture dishes. Collagen IV (Becton Dickinson, France), fibronectin (Becton Dickinson, France) and laminin 5, purified in the laboratory (Pousselle P. et al., J. Cell. Biol., 1991, 114(3); 567-576) were used in our experiments. […] An absorbance reading was performed at 570 nm using an ELISA plate reader. […] We then calculated the means of the three absorbance values for each of the triplicates. […]

[2] = system: normal human keratinocytes on collagen IV; assay: Adhesion of normal human keratinocytes on collagen IV (colorimetric crystal violet adherence test); format: cell-based; conditions: manganese chloride 0.5 mM, 45 minutes
Protocol: The culture medium employed was the defined medium for keratinocyte culture 154 (+additive HKGS) manufactured by Cascade Inc. (USA) and marketed by Tebu (France) containing 0.2 mM of CaCl2, pH 7.2 to 7.4. The keratinocytes were obtained according to the technique described by Boyce and Ham (Boyce S T, Ham R G, J. Invest. Dermatol., 1983, 81, 33s-40s). Pieces of human skin obtain from human prepuces (circumcision) were treated in a manner to isolate their basal human keratinocytes. 3·10^4 live cells were then seeded per cm^2 on 25-cm^2 tissue culture dishes (Coming, Polylabo, France). The keratinocytes were cultured at 37° C. in an incubator with CO2 (5% of CO2, 95% of air and 98% humidity). The medium was changed every two days. Subculture took place when the cells reached subconfluence. The cell layer was then rinsed with PBS, then the cells were trypsinated using the conventional trypsination technique (Trypsin-EDTA (0.05-0.02%) at 37° C.). The cells were then seeded in 75-cm^2 culture dishes. Collagen IV (Becton Dickinson, France), fibronectin (Becton Dickinson, France) and laminin 5, purified in the laboratory (Pousselle P. et al., J. Cell. Biol., 1991, 114(3); 567-576) were used in our experiments. […] An absorbance reading was performed at 570 nm using an ELISA plate reader. […] We then calculated the means of the three absorbance values for each of the triplicates.

## Manganese chloride [MnCl2]
[1]; Laminin 5 1.5 μg/ml
  % adherence (cells alone = 100%): 109%
[1]; Laminin 5 3 μg/ml
  % adherence (cells alone = 100%): 97%
[2]; Collagen IV 10 μg/ml
  % adherence (cells alone = 100%): 280%
[2]; Collagen IV 20 μg/ml
  % adherence (cells alone = 100%): 357%
